Read-outs that look alike come from different tables or passages of the source.
Legend:
Experiment in all cases: Kinase selectivity, P33-radiolabeled assay
Format in all cases: biochemical
Settings in all cases: 10 μM ATP
ITK = biological target: T1, ITK (Homo sapiens, UniProt Q08881)
T1 construct: purchased Reaction Biology Corp
T1 sequence (Q08881 1-620): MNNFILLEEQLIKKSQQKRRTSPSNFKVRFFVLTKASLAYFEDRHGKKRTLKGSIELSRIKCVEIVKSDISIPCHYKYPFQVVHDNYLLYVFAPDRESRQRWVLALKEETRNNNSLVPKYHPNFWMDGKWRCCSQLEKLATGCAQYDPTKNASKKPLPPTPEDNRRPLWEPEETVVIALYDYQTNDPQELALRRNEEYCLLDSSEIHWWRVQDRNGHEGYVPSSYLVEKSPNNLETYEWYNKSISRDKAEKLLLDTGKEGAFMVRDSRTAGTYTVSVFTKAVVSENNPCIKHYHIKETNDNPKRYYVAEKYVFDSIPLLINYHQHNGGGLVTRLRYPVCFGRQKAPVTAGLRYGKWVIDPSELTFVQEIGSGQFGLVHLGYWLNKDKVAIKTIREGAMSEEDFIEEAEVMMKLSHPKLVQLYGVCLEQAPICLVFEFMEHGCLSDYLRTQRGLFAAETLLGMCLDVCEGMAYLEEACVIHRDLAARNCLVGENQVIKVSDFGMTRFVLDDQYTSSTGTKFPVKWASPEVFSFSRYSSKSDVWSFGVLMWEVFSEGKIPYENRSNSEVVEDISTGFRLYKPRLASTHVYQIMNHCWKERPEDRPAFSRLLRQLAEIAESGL
Outline: (§1)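 ATP at 10 μM; test article at 10 μM, single point, two replicates. Output is activity as % of DMSO.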

CK1g2 = biological target: T2, CK1g2 (Homo sapiens, UniProt P78368)
T2 construct: purchased Reaction Biology Corp
Outline: as §1

PLK1 = biological target: T3, PLK1 (Homo sapiens, UniProt P53350)
T3 construct: purchased Reaction Biology Corp
Outline: as §1

SYK = biological target: T4, SYK (Homo sapiens, UniProt P43405)
T4 construct: purchased Reaction Biology Corp
Outline: as §1

PKN2/PRK2 = biological target: T5, PKN2/PRK2 (Homo sapiens, UniProt Q16513)
T5 construct: purchased Reaction Biology Corp
Outline: as §1

ERK7/MAPK15 = biological target: T6, ERK7/MAPK15 (Homo sapiens, UniProt Q8TD08)
T6 construct: purchased Reaction Biology Corp
T6 sequence (Q8TD08 1-544): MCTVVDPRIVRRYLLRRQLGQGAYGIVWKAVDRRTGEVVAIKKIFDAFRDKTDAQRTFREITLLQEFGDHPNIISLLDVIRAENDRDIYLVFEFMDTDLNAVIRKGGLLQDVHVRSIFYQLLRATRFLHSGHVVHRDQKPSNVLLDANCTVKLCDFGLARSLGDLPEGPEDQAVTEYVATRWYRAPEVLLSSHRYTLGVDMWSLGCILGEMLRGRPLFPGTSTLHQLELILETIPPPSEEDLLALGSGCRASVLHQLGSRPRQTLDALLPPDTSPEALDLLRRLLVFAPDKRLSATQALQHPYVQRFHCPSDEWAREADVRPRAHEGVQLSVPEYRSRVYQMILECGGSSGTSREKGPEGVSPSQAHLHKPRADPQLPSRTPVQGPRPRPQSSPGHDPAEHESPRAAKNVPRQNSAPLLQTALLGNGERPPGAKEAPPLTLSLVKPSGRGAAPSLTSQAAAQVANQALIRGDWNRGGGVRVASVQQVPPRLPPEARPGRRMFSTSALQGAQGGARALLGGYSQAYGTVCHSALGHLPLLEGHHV
Outline: as §1

ROCK1 = biological target: T7, ROCK1 (Homo sapiens, UniProt Q13464)
T7 construct: purchased Reaction Biology Corp
Outline: as §1

CDK3/cyclin E = biological target: T8, CDK3/cyclin E (Homo sapiens, UniProt Q00526)
T8 construct: purchased Reaction Biology Corp
Outline: as §1

DCAMKL2 = biological target: T9, DCAMKL2 (Homo sapiens, UniProt Q8N568)
T9 construct: purchased Reaction Biology Corp
T9 sequence (Q8N568 1-766): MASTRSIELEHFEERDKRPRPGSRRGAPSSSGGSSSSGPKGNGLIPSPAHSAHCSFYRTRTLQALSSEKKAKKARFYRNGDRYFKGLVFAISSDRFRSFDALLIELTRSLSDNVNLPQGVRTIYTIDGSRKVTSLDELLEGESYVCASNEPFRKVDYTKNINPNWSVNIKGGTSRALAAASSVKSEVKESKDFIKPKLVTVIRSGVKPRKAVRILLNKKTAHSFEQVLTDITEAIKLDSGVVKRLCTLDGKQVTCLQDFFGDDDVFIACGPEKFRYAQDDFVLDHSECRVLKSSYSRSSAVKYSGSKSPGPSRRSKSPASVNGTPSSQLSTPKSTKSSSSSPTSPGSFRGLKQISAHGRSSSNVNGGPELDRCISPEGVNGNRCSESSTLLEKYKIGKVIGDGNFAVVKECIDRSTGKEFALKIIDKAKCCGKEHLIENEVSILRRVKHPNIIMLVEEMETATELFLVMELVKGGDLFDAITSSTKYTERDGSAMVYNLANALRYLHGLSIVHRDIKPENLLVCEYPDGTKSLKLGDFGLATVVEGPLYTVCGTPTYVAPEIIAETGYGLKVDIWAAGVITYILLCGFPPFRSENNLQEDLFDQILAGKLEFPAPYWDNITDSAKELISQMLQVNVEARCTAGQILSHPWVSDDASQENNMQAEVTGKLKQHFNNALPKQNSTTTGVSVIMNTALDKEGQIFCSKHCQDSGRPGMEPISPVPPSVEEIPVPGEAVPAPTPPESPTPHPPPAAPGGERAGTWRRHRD
Outline: as §1

[1] = read-out: % Enzyme Activity (relative to DMSO controls) AVG
[2] = read-out: % Enzyme Activity (relative to DMSO controls) Data 1
[3] = read-out: % Enzyme Activity (relative to DMSO controls) Data 2

T2 sequence (P78368 whole entry): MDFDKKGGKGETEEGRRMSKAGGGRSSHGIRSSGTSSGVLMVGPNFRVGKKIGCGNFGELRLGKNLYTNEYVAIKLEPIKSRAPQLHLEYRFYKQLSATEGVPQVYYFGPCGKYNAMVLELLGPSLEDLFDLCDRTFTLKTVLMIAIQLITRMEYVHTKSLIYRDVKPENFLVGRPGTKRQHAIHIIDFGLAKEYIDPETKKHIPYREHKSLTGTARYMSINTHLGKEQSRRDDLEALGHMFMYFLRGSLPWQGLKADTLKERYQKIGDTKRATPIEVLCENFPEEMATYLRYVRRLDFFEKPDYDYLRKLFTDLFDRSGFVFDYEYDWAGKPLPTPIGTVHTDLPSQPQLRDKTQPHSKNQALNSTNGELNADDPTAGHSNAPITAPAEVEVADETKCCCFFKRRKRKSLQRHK
T7 sequence (Q13464 whole entry): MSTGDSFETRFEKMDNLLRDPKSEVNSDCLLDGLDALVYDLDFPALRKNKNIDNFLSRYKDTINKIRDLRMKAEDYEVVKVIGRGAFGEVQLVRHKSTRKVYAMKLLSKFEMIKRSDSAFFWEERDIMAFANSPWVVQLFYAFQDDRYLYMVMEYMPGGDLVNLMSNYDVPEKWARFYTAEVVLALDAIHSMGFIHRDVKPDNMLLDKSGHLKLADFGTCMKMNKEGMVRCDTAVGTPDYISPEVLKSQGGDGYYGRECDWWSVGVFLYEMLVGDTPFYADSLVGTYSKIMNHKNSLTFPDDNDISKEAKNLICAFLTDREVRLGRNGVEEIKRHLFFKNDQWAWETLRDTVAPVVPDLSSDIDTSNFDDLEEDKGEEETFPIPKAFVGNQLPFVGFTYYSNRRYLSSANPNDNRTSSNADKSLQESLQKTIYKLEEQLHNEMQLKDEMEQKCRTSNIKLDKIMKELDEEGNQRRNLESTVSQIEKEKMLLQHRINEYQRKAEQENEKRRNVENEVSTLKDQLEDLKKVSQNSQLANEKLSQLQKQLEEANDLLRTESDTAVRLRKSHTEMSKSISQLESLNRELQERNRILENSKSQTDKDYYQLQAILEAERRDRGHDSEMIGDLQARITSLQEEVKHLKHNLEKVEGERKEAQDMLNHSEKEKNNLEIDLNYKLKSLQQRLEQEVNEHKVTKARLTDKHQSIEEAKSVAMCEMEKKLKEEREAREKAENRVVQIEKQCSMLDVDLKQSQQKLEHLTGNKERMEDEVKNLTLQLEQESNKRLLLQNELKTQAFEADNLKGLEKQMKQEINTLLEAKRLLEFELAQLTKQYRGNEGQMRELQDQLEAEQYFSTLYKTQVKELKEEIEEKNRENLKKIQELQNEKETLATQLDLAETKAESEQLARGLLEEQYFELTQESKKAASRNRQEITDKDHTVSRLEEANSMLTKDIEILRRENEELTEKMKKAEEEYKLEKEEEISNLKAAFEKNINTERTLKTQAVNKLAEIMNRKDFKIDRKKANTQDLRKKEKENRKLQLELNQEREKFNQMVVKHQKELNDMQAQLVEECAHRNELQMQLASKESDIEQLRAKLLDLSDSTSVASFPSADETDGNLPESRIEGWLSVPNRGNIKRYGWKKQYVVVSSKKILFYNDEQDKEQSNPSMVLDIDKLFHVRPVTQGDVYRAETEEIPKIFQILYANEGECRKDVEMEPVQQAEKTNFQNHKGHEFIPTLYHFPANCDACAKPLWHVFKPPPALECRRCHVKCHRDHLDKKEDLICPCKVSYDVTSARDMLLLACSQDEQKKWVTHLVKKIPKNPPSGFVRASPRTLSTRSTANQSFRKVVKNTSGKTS
T8 sequence (Q00526 whole entry): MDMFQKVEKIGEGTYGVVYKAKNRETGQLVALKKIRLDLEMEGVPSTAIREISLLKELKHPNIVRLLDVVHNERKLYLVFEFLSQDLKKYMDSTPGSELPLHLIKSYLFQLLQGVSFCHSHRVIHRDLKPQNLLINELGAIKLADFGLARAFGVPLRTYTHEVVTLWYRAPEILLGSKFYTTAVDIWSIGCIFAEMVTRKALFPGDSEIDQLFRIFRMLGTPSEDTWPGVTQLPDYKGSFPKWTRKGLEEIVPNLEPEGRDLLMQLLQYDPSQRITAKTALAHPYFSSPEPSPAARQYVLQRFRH
T8 sequence (P24864 whole entry partner): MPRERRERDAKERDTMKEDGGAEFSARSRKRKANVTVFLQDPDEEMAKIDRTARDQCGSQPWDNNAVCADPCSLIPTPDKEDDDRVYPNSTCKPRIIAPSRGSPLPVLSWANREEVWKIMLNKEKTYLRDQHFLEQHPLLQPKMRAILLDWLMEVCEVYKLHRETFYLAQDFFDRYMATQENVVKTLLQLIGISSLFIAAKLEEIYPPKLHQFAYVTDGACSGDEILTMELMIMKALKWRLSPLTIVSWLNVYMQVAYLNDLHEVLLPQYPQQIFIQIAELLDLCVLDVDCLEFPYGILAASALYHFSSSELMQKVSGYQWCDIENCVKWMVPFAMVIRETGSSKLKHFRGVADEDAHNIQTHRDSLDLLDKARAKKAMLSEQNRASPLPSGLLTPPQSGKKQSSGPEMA
T5 sequence (Q16513 whole entry): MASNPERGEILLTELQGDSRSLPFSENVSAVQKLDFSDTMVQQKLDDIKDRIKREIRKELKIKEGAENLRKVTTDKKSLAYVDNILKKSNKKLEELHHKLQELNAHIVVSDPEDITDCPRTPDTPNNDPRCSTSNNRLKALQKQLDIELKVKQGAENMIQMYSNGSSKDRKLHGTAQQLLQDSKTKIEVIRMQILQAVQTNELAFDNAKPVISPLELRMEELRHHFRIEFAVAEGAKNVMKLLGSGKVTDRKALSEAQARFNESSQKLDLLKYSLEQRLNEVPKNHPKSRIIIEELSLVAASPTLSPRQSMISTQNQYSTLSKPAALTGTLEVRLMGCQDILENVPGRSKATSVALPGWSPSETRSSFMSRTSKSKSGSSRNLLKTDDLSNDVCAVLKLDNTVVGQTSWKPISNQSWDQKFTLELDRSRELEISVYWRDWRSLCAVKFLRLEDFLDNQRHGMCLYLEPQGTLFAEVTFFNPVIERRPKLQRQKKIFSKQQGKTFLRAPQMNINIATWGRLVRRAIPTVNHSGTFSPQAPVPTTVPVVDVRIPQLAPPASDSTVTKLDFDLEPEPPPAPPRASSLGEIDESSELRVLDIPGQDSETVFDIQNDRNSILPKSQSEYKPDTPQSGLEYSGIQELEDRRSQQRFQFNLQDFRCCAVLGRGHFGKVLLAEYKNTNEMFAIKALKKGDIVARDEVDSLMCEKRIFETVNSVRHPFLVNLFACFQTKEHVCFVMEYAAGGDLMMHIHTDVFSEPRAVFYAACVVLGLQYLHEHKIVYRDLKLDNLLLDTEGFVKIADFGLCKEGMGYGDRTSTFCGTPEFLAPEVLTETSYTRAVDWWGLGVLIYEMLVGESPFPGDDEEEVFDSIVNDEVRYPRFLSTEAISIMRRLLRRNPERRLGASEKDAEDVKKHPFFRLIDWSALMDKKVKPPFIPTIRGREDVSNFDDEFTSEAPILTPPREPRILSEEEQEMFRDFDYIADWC
T3 sequence (P53350 whole entry): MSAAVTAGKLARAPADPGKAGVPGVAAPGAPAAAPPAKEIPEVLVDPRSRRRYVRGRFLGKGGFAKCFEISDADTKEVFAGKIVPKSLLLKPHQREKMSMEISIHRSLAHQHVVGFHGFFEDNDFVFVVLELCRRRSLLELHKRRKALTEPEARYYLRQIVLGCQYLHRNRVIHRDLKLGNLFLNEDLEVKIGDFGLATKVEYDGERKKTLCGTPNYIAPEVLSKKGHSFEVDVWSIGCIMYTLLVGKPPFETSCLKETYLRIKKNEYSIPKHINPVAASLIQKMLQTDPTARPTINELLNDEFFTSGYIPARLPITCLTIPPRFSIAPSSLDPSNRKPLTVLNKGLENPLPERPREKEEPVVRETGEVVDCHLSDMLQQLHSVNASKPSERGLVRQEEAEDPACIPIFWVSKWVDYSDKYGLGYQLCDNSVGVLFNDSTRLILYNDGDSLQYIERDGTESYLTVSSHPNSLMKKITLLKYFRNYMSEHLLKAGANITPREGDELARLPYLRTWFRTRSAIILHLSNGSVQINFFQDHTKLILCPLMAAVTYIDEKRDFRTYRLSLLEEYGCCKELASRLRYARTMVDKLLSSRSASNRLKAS

## CC(C)(C)C(=O)N1N=CC[C@H]1c1ccccc1 [GSK′963]
ITK; [1]
  remaining activity at 10 µM: 102%
ITK; [2]
  remaining activity at 10 µM: 95.2%
ITK; [3]
  remaining activity at 10 µM: 108%
CK1g2; [1]
  remaining activity at 10 µM: 112%
CK1g2; [2]
  remaining activity at 10 µM: 112%
CK1g2; [3]
  remaining activity at 10 µM: 111%
PLK1; [1]
  remaining activity at 10 µM: 103%
PLK1; [2]
  remaining activity at 10 µM: 105%
PLK1; [3]
  remaining activity at 10 µM: 101%
SYK; [1]
  remaining activity at 10 µM: 102%
SYK; [2]
  remaining activity at 10 µM: 106%
SYK; [3]
  remaining activity at 10 µM: 97.6%
PKN2/PRK2; [1]
  remaining activity at 10 µM: 93.3%
PKN2/PRK2; [2]
  remaining activity at 10 µM: 97.5%
PKN2/PRK2; [3]
  remaining activity at 10 µM: 89.2%
ERK7/MAPK15; [1]
  remaining activity at 10 µM: 112%
ERK7/MAPK15; [2]
  remaining activity at 10 µM: 113%
ERK7/MAPK15; [3]
  remaining activity at 10 µM: 111%
ROCK1; [1]
  remaining activity at 10 µM: 105%
ROCK1; [2]
  remaining activity at 10 µM: 103%
ROCK1; [3]
  remaining activity at 10 µM: 106%
CDK3/cyclin E; [1]
  remaining activity at 10 µM: 106%
CDK3/cyclin E; [2]
  remaining activity at 10 µM: 105%
CDK3/cyclin E; [3]
  remaining activity at 10 µM: 107%
DCAMKL2; [1]
  remaining activity at 10 µM: 101%
DCAMKL2; [2]
  remaining activity at 10 µM: 100%
DCAMKL2; [3]
  remaining activity at 10 µM: 102%

Source: article PMC4979471 (Cell Death Discovery, 2015)
